Here are results for six compounds from patent publication EP0268915A2, “Trifluoromethylcarbonyl derivatives” (BAYER AG, priority 1986, dated 1988).

Common to all, as to assay type: in vivo
Data set [1] relates to Myzus persicae. Description: Critical concentration test / root-systemic action, Myzus persicae. To be noted: Wirkstoffkonzentration 20 ppm im Boden, Kohl (Brassica oleracea), Besatz nach 7 Tagen, Auswertung nach weiteren 2 Tagen; for mortality at 20 µg/mL: Myzus persicae, 48 h, read-out: wurzelsystemische Wirkung. The text has this:
Grenzkonzentrations-Test / Wurzelsystemische Wirkung Testinsekt: Myzus persicae Lösungsmittel: 3 Gewichtsteile Aceton Emulgator: 1 Gewichtsteil Alkylarylpolyglykolether
(§1) Zur Herstellung einer zweckmäßigen Wirkstoffzubereitung vermischt man 1 Gewichtsteil Wirkstoff mit der angegebenen Menge Lösungsmittel, gibt die angegebene Menge Emulgator zu und verdünnt das Konzentrat mit Wasser auf die gewünschte Konzentration.
(§2) Die Wirkstoffzubereitung wird innig mit Boden vermischt. Dabei spielt die Konzentration des Wirkstoffs in der Zubereitung praktisch keine Rolle, entscheidend ist allein die Wirkstoffgewichtsmenge pro Volumeneinheit Boden, welche in ppm (= mg/1) angegeben wird. Man füllt den behandelten Boden in Töpfe und bepflanzt diese mit Kohl (Brassica oleracea). Der Wirkstoff kann so von den Pflanzenwurzeln aus dem Boden aufgenommen und in die Blätter transportiert werden.
(§3) Für den Nachweis des wurzelsystemischen Effektes werden nach 7 Tagen ausschließlich die Blätter mit den obengenannten Testtieren besetzt. Nach weiteren 2 Tagen erfolgt die Auswertung durch Zählen oder Schätzen der toten Tiere. Aus den Abtötungszahlen wird die wurzelsystemische Wirkung des Wirkstoffs abgeleitet. Sie ist 100 %, wenn alle Testtiere abgetötet sind und 0 %, wenn noch genau so viele Testinsekten leben wie bei der unbehandelten Kontrolle.

For data set [2], the system named is Nephotettix cincticeps. The experiment in a line: Nephotettix test (rice seedlings dipped in the active compound preparation). To be noted: for mortality at 0.0001 %: Nephotettix cincticeps, 144 h, read-out: Wirkung (Abtötung in %). The text has this:
(§4) Lösungsmittel: 7 Gewichtsteile Dimethylformamid Emulgator: 1 Gewichtsteil Alkylarylpolyglykolether
Zur Herstellung einer zweckmäßigen Wirkstoffzubereitung vermischt man 1 Gewichstteil Wirkstoff mit der angegebenen Menge Lösungsmittel und der angegebenen Menge Emulgator und verdünnt das Konzentrat mit Wasser auf die gewünschte Konzentration.
Reiskeimlinge (Oryza sativa) werden durch Tauchen in die Wirkstoffzubereitung der gewünschten Konzentration behandelt und mit der Grünen Reiszikade (Nephotettix cincticeps) besetzt, solange die Keimlinge noch feucht sind.
Nach der gewünschten Zeit wird die Abtötung in % bestimmt. Dabei bedeutet 100 %, daß alle Zikaden abgetötet wurden; 0 % bedeutet, daß keine Zikaden abgetötet wurden.

The subject of data set [3] is Phaedon cochleariae-Larven. The experiment in a line: Critical concentration test / root-systemic action, Phaedon cochleariae larvae. To be noted: Wirkstoffkonzentration 20 ppm im Boden, Kohl (Brassica oleracea), Besatz nach 7 Tagen, Auswertung nach weiteren 2 Tagen.
Source text: Grenzkonzentrations-Test / Wurzelsystemische Wirkung Testinsekt: Phaedon cochleariae-Larven Lösungsmittel: 3 Gewichtsteile Aceton
Emulgator: 1 Gewichtsteil Alkylarylpolyglykolether
as §1, §2, §3

Data set [4] deals with Lucilia cuprina resistent-Larven. The experiment in a line: Test with resistant Lucilia cuprina larvae. To be noted: 24 h, Wirkstoffkonzentration 100 ppm, nach 24 Stunden, read-out: Abtötung. The text has this: Test mit Lucilia cuprina resistent-Larven
Emulgator: 35 Gewichtsteile Ethylenglykolmonomethylether 35 Gewichtsteile Nonylphenolpolyglykolether
Zur Herstellung einer zweckmäßigen Wirkstoffzubereitung vermischt man drei Gewichtsteile Wirkstoff mit sieben Gewichtsteilen des oben angegebenen Gemisches und verdünnt das so erhaltene Konzentrat mit Wasser auf die jeweils gewünschte Konzentration.
Etwa 20 Lucilia cuprina res.-Larven werden in ein Teströhrchen gebracht, welches ca. 1 cm^3 Pferdefleisch und 0,5 ml der Wirkstoffzubereitung enthält. Nach 24 Stunden wird der Abtötungsgrad bestimmt.

The test system of data set [5] is Aphis fabae. Description: Aphis test (systemic action, soil drench of bean plants). To be noted: 96 h, read-out: Wirkung (Abtötung in %). The procedure: Aphis-Test (systemische Wirkung)
as §4
Zur Herstellung einer zweckmäßigen Wirkstoffzubereitung vermischt man 1 Gewichtsteil Wirkstoff mit der angegebenen Menge Lösungsmittel und der angegebenen Menge Emulgator und verdünnt das Konzentrat mit Wasser auf die gewünschte Konzentration.
Mit je 20 ml Wirkstoffzubereitung der gewünschten Konzentration werden Bohnenpflanzen (Vicia faba), die stark von der schwarzen Bohnenlaus (Aphis fabae) befallen sind, angegossen, so daß die Wirkstoffzubereitung in den Boden eindringt, ohne den Sproß zu benetzen. Der Wirkstoff wird von den Wurzeln aufgenommen und in den Sproß weitergeleitet.
Nach der gewünschten Zeit wird die Abtötung in % bestimmt. Dabei bedeutet 100 %, daß alle Blattläuse abgetötet wurden; 0 % bedeutet, daß keine Blattläuse abgetötet wurden.

Where [6] appears, read: Wirkstoffkonzentration 0,0001 %, nach 6 Tagen, Reiskeimlinge (Oryza sativa) getaucht.
The mark [7] stands for this setting: Wirkstoffkonzentration 0,01 %, nach 4 Tagen, Bohnenpflanzen (Vicia faba) angegossen, systemisch.

Like-named read-outs stand apart in the source and are kept apart here.

Regarding `O=C(C=C1SCCN1Cc1ccc(Cl)nc1)C(F)(F)F` [Beispiel 3, 3-(6-Chlor-pyrid-3-yl)-methyl-2-(trifluormethylcarbonylmethylen)-1,3-thiazolidin], the “wurzelsystemische Wirkung” value in data set [1] and in data set [3] was 100% throughout. The “Wirkung (Abtötung in %)” value in data set [2] (setting [6]) was found to be 90%.
As for `O=C(C=C1NCCN1Cc1ccc(Cl)nc1)C(F)(F)F` [Beispiel 4, 1-(6-Chlor-pyrid-3-yl)-methyl-2-(trifluormethylcarbonylmethylen)-imidazolidin], in data set [4], the mortality at 100 µg/mL was 100%. For the same compound, the mortality at 20 µg/mL in data set [1] came out at 100%. In data set [5] (setting [7]), the mortality at 0.01 % stood at 100%.
As to `O=C(C(C(=O)C(F)(F)F)=C1NCCN1Cc1ccc(Cl)nc1)C(F)(F)F` [Beispiel 5, 2-[(Di-trifluormethylcarbonyl)-methylen]-3-(6-chlor-pyrid-3-yl)-methylimidazolidin], the mortality at 100 µg/mL in data set [4] stood at 100%. Also, the mortality at 20 µg/mL in data set [1] amounted to 100%. The mortality at 0.01 % in data set [5] (setting [7]) turned out to be 100%. For the same compound, in data set [2] (setting [6]), the mortality at 0.0001 % was 100%.
`O=C(C=C1NCCCN1Cc1ccc(Cl)nc1)C(F)(F)F` [Beispiel 8]: the mortality at 100 µg/mL in data set [4] came out at 100%. Also, the mortality at 20 µg/mL in data set [1] is 100%; in data set [3] (Phaedon, 48 h, read-out: wurzelsystemische Wirkung), 100%. In addition, the mortality at 0.01 % in data set [5] (setting [7]) came out at 100%.
Take `O=C(C(C(=O)C(F)(F)F)=C1NCCCN1Cc1ccc(Cl)nc1)C(F)(F)F` [Beispiel 9]: in data set [4], the mortality at 100 µg/mL was determined as 100%.
Turning to `O=[N+]([O-])C=C1NCCCS1` [Vergleichssubstanz (A), Tetrahydro-2-nitromethylen-2H-1,3-thiazin, reference compound], the “wurzelsystemische Wirkung” value in data set [1] and in data set [3] was “keine Wirkung” in each case. Moreover, the mortality at 0.01 % in data set [5] was 50%. Further, the mortality at 0.0001 % in data set [2] was determined as 20%.
